This is an account of results in patent US20240342292A1, “Compounds for the Degradation of EGFR Kinase” (BeiGene Switzerland GmbH, priority 2021, published 2024).

In one test the test system is Del19/T790M/C797S EGFR. Description: EGFR degradation HTRF assay in H1975-clone #28 (DTC) cells. The test is classed as cell-based. The conditions noted are these: H1975 # 28 DTC (Del19/T790M/C797S), 16h treatment; for DC50: HTRF; for Dmax (%): maximum percentage of degradation. In outline: (§1)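 DC50 from a four-parameter fit of HTRF signal. H1975 mutant-EGFR clones with endogenous EGFR knocked out; 16 h treatment, 10 uM top, 5-fold × 8.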
(Time-resolved FRET reads energy transfer from a long-lived donor to a nearby acceptor.)

Another test concerns the target T1, L858R/T790M/C797S EGFR (Homo sapiens, UniProt P00533, C797S/L858R/T790M).
T1 construct: expressed in transfected cells; host or cells: H1975 clone #25 (lentiviral over-expression, endogenous EGFR knocked out by sgRNA)
Description: EGFR degradation HTRF assay in H1975-clone #25 (LTC) cells. Type of test: cell-based. Particulars: 16h treatment; for DC50: H1975 # 25-LTC (L858R/T790M/C797S), HTRF; for Dmax: NCI-H1975, H1975 # 25-LTC (L858R/T790M/C797S), maximum percentage of degradation. In outline: as §1

T1 sequence (P00533 25-1210 T790M/C797S/L858R): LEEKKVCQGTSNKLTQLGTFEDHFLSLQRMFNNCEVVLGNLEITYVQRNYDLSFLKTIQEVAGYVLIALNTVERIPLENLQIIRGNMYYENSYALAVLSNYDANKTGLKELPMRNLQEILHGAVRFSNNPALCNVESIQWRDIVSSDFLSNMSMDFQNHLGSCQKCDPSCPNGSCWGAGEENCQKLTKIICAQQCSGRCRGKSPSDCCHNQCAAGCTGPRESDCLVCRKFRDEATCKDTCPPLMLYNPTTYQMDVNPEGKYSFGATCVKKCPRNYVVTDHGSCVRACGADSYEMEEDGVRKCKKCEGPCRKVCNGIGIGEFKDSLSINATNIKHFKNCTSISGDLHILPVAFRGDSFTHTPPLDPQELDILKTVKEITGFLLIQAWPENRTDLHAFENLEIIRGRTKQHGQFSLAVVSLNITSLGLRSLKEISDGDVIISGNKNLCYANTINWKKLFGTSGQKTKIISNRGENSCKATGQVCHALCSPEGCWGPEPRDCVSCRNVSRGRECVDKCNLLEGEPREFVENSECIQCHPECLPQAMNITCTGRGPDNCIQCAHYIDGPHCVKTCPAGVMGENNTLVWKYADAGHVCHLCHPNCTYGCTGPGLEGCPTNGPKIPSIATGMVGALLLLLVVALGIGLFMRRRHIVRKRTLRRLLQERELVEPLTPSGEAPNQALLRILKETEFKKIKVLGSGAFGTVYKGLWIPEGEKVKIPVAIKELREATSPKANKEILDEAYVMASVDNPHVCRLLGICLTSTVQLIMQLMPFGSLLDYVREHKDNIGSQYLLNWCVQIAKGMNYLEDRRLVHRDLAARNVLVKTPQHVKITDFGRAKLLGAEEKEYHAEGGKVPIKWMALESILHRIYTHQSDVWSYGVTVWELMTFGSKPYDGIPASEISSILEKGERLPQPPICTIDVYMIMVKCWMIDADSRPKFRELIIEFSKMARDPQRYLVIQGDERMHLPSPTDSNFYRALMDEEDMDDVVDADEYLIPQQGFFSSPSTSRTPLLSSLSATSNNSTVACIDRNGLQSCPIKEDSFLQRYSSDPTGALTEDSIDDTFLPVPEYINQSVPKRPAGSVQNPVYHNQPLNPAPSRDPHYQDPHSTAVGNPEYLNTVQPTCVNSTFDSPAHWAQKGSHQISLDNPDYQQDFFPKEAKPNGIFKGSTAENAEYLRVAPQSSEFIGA

As usually defined, the DC50 is the midpoint of the concentration-degradation curve. A low value points to degradation at low concentration. The term Dmax denotes the largest share of the target that was removed. High values mean deep degradation, low ones shallow degradation. For the compound `Cc1cc2cc(n1)-c1cnn(C)c1OCCC[C@@H](C)CN1/C(=N/C2=O)Nc2ccc(CN3CCN(C(=O)C4CN(c5ccc(F)c6c5n(C)c(=O)n6C5CCC(=O)NC5=O)C4)CC3)cc21` (stereo partly drawn) [Example 94, 3-(7-fluoro-3-methyl-2-oxo-4-(3-(4-(((R,E)-1^1,2^6,7-trimethyl-3-oxo-5^2,5^3-dihydro-1^1H,5^1H-11-oxa-4-aza-5(2,1)-benzo[d]imidazola-2(2,4)-pyridina-1(4,5)-pyrazolacycloundecaphane-5^6-yl)methyl)piperazine-1-carbonyl)azetidin-1-yl)-2,3-dihydro-1H-benzo[d]imidazol-1-yl)piperidine-2,6-dione], in the test with Del19/T790M/C797S EGFR, the DC50 is 0.7 nM and the “Dmax (%)” value is 80.5%. On L858R/T790M/C797S EGFR, this compound gave a DC50 of 0.5 nM and a Dmax of 90.6%.

Take `Cc1cc2cc(n1)-c1cnn(C)c1OCCC[C@@H](C)CN1/C(=N/C2=O)Nc2ccc(C(=O)N3CCN(CCCc4cc(F)c([C@H]5CCC(=O)NC5=O)c(F)c4)CC3)cc21` [Example 341, (R)-3-(2,6-difluoro-4-(3-(4-((R,E)-1^1,2^6,7-trimethyl-3-oxo-5^2,5^3-dihydro-1^1H,5^1H-11-oxa-4-aza-5(2,1)-benzo[d]imidazola-2(2,4)-pyridina-1(4,5)-pyrazolacycloundecaphane-5^6-carbonyl)piperazin-1-yl)propyl)phenyl)piperidine-2,6-dione]: in the test on Del19/T790M/C797S EGFR, it took 0.621 nM to reach half-maximal degradation (DC50) and the “Dmax (%)” value came out at 79.84%. On L858R/T790M/C797S EGFR, this compound displayed a DC50 of 0.54 nM and a Dmax of 86.8%.

`Cc1cc2cc(n1)-c1cnn(C)c1OCCC[C@@H](C)CN1/C(=N/C2=O)Nc2ccc(CN(C)[C@H]3CCCN(C(=O)[C@@H]4CCN(c5cc(F)c([C@H]6CCC(=O)NC6=O)c(F)c5)C4)C3)cc21` [Example 319, (R)-3-(2,6-difluoro-4-((R)-3-((S)-3-(methyl(((R,E)-1^1,2^6,7-trimethyl-3-oxo-5^2,5^3-dihydro-1^1H,5′ H-11-oxa-4-aza-5(2,1)-benzo[d]imidazola-2(2,4)-pyridina-1(4,5)-pyrazolacycloundecaphane-5^6-yl)methyl)amino)piperidine-1-carbonyl)pyrrolidin-1-yl)phenyl)piperidine-2,6-dione]: in the test with Del19/T790M/C797S EGFR, it took 0.643 nM to reach half-maximal degradation (DC50) and the “Dmax (%)” value turned out to be 74.25%. On L858R/T790M/C797S EGFR, this compound came in with a DC50 of 1.26 nM and a Dmax of 83.4%.

As for `Cc1cc2cc(n1)-c1cnn(C)c1OCC[C@H]1C[C@@H]1CN1/C(=N/C2=O)Nc2ccc(N3CCN(C[C@H]4C[C@H](Nc5cc(F)c([C@H]6CCC(=O)NC6=O)c(F)c5)C4)CC3)cc21` [Example 457, (R)-3-(4-(((1S,3R)-3-((4-((7^1S,7^2R,E)-1^1,2^6-dimethyl-3-oxo-5^2,5^3-dihydro-1^1H,5^1H-10-oxa-4-aza-5(2,1)-benzo[d]imidazola-2(2,4)-pyridina-1(4,5)-pyrazola-7(1,2)-cyclopropanacyclodecaphane-5^6-yl)piperazin-1-yl)methyl)cyclobutyl)amino)-2,6-difluorophenyl)piperidine-2,6-dione], in the test with Del19/T790M/C797S EGFR, the DC50 stood at 0.709 nM and the “Dmax (%)” value is on record as 91.81%. For the same compound, at L858R/T790M/C797S EGFR, half-maximal degradation (DC50) was put at 0.632 nM and the Dmax turned out to be 92.8%.

On to `Cc1cc2cc(n1)-c1cnn(C)c1OCCC[C@@H](C)CN1/C(=N/C2=O)Nc2ccc(CN3C4CCC3CN(C(=O)[C@@H]3CCN(c5cc(F)c([C@H]6CCC(=O)NC6=O)c(F)c5)C3)C4)cc21` [Example 187, (3R)-3-(2,6-difluoro-4-((3R)-3-(8-(((R,E)-1^1,2,7-trimethyl-3-oxo-5^2,5^3-dihydro-1^1H,5^1H-11-oxa-4-aza-5(2,1)-benzo[d]imidazola-2(2,4)-pyridina-1(4,5)-pyrazolacycloundecaphane-5^6-yl)methyl)-3,8-diazabicyclo[3.2.1]octane-3-carbonyl)pyrrolidin-1-yl)phenyl)piperidine-2,6-dione], for which, in the test with Del19/T790M/C797S EGFR, the DC50 came to 1.8 nM and the “Dmax (%)” value stood at 80.62%. Moreover, at L858R/T790M/C797S EGFR, half-maximal degradation (DC50) was put at 1.01 nM and the Dmax turned out to be 86.1%.
